US10092551B2, “Spiro-thiazolones” (Hoffmann-La Roche Inc., priority 2014, dated 2018)

What follows are molecules tested against human V1a receptor (Homo sapiens (Human), UniProt P37288) (assay: human V1a receptor binding studies (3H-Vasopressin, SPA beads)). Conditions: membranes of HEK293 cells transiently transfected with human V1a receptor, Ki by Cheng-Prussoff.
Procedure: The human V1a receptor was cloned by RT-PCR from total human liver RNA. The coding sequence was subcloned in an expression vector after sequencing to confirm the identity of the amplified sequence. […] Cell membranes were prepared from HEK293 cells transiently transfected with the expression vector and grown in 20 liter fermenters with the following protocol.
50 g of cells are re-suspended in 30 ml freshly prepared ice cold Lysis buffer (50 mM HEPES, 1 mM EDTA, 10 mM MgCl2 adjusted to pH=7.4+complete cocktail of protease inhibitor (Roche Diagnostics)). Homogenized with Polytron for 1 min and sonicated on ice for 2×2 minutes at 80% intensity (Vibracell sonicator). The preparation is centrifuged 20 min at 500 g at 4° C., the pellet is discarded and the supernatant centrifuged 1 hour at 43,000 g at 4° C. (19,000 rpm). The pellet is re-suspended in 12.5 ml Lysis buffer+12.5 ml Sucrose 20% and homogenized using a Polytron for 1-2 min. The protein concentration is determined by the Bradford method and aliquots are stored at −80° C. until use. For binding studies 60 mg Yttrium silicate SPA beads (Amersham) are mixed with an aliquot of membrane in binding buffer (50 mM Tris, 120 mM NaCl, 5 mM KCl, 2 mM CaCl2, 10 mM MgCl2) for 15 minutes with mixing. 50 μl of bead/membrane mixture is then added to each well of a 96 well plate, followed by 50 μl of 4 nM 3H-Vasopressin (American Radiolabeled Chemicals). For total binding measurement 100 μl of binding buffer are added to the respective wells, for non-specific binding 100 μl of 8.4 mM cold vasopressin and for compound testing 100 μl of a serial dilution of each compound in 2% DMSO. The plate is incubated 1 h at room temperature, centrifuged 1 min at 1000 g and counted on a Packard Top-Count. Non-specific binding counts are subtracted from each well and data is normalized to the maximum specific binding set at 100%. To calculate an IC 50 the curve is fitted using a non-linear regression model (XLfit) and the Ki is calculated using the Cheng-Prussoff equation.

Sequence of human V1a receptor (P37288 whole entry): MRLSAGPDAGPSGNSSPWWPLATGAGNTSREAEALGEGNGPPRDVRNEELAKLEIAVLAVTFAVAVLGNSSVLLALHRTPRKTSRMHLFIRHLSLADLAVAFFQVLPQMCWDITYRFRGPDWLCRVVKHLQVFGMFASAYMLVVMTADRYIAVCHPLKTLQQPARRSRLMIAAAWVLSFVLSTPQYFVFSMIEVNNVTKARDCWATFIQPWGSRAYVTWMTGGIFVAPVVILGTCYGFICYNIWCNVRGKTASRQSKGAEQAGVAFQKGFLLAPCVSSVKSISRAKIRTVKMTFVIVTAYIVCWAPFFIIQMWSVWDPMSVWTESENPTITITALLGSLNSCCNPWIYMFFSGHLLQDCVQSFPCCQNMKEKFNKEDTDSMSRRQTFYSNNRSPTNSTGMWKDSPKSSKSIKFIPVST

Structure (SMILES)	pKi hV1a
C/C(=C1/SC(N2CCC3(CC2)OCc2ccccc23)=NC1=O)c1ccnc(Cl)c1 [Example 48, (5E/Z)-5-[1-(2-chloropyridin-4-yl)ethylidene]-2-(1′H,3H-spiro[2-benzofuran-1,4′-piperidin]-1′-yl)-1,3-thiazol-4(5H)-one]	8.6
C/C(=C1/SC(N2CCC3(CC2)OCc2ccccc23)=NC1=O)c1ccccc1 [Example 16, (5E/Z)-5-(1-phenylethylidene)-2-(1′H,3H-spiro[2-benzofuran-1,4′-piperidin]-1′-yl)-1,3-thiazol-4(5H)-one]	8.5
C/C(=C1\SC(N2CCC3(CC2)OCc2ccccc23)=NC1=O)C1CCCCC1 [Example 28, (5E)-5-(1-cyclohexylethylidene)-2-(1′H,3H-spiro[2-benzofuran-1,4′-piperidin]-1′-yl)-1,3-thiazol-4(5H)-one]	7.9
C/C(=C1/SC(N2CCC3(CC2)OCc2ccccc23)=NC1=O)c1ccc(Cl)nc1 [Example 49, (5E/Z)-5-[1-(6-chloropyridin-3-yl)ethylidene]-2-(1′H,3H-spiro[2-benzofuran-1,4′-piperidin]-1′-yl)-1,3-thiazol-4(5H)-one]	9.1
CS(=O)(=O)N1CCC(=C2SC(N3CCC4(CC3)OCc3ccccc34)=NC2=O)CC1 [Example 68, 5-[1-(methylsulfonyl)piperidin-4-ylidene]-2-(1′H,3H-spiro[2-benzofuran-1,4′-piperidin]-1′-yl)-1,3-thiazol-4(5H)-one]	7.7
C/C(=C1/SC(N2CCC3(CC2)OCc2ccccc23)=NC1=O)C1CCCC1 [Example 43, (5E/Z)-5-(1-cyclopentylethylidene)-2-(1′H,3H-spiro[2-benzofuran-1,4′-piperidin]-1′-yl)-1,3-thiazol-4(5H)-one]	8.8
CC(C)(C)[Si](C)(C)OC/C(=C1/SC(N2CCC3(CC2)OCc2ccccc23)=NC1=O)c1ccc(Cl)nc1 [Example 129, (5E)-5-[2-{[tert-butyl(dimethyl)silyl]oxy}-1-(6-chloropyridin-3-yl)ethylidene]-2-(1′H,3H-spiro[2-benzofuran-1,4′-piperidin]-1′-yl)-1,3-thiazol-4(5H)-one]	8.2
C/C(=C1\SC(N2CCC3(CC2)OCc2ccccc23)=NC1=O)c1ccccc1F [Example 56, (5E)-5-[1-(2-fluorophenyl)ethylidene]-2-(1′H,3H-spiro[2-benzofuran-1,4′-piperidin]-1′-yl)-1,3-thiazol-4(5H)-one]	8.3
CC(C)=C1SC(N2CCC3(CC2)OCc2ccccc23)=NC1=O [Example 30, 5-(propan-2-ylidene)-2-(1′H,3H-spiro[2-benzofuran-1,4′-piperidin]-1′-yl)-1,3-thiazol-4(5H)-one]	7.8
C/C(=C1/SC(N2CCC3(CC2)OCc2ccncc23)=NC1=O)c1ccc(Cl)cc1 [Example 4, (5E/Z)-5-[1-(4-chlorophenyl)ethylidene]-2-(1H,1′H-spiro[furo[3,4-c]pyridine-3,4′-piperidin]-1′-yl)-1,3-thiazol-4(5H)-one and (5Z)-5-[1-(4-chlorophenyl)ethylidene]-2-(1H,1′H-spiro[furo[3,4-c]pyridine-3,4′-piperidin]-1′-yl)-1,3-thiazol-4(5H)-one]	9.0
C/C(=C1/SC(N2CCC3(CC2)OCc2ccccc23)=NC1=O)C1CC1 [Example 42, (5E/Z)-5-(1-cyclopropylethylidene)-2-(1′H,3H-spiro[2-benzofuran-1,4′-piperidin]-1′-yl)-1,3-thiazol-4(5H)-one]	8.4
O=C1N=C(N2CCC3(CC2)OCc2ccccc23)S/C1=C1/CCCc2cc(Cl)ccc21 [Example 11, (5E/Z)-5-(6-chloro-3,4-dihydronaphthalen-1(2H)-ylidene)-2-(1′H,3H-spiro[2-benzofuran-1,4′-piperidin]-1′-yl)-1,3-thiazol-4(5H)-one]	8.4
C/C(=C1/SC(N2CCC3(CC2)OCc2ccccc23)=NC1=O)c1cccc(Cl)c1 [Example 12, (5E/Z)-5-[1-(3-chlorophenyl)ethylidene]-2-(1′H,3H-spiro[2-benzofuran-1,4′-piperidin]-1′-yl)-1,3-thiazol-4(5H)-one]	8.2

Now from value to molecule:

pKi hV1a	Structure (SMILES)
7.0	O=C1N=C(N2CCC3(CC2)OCc2ccccc23)SC1=C(CCl)CCl [Example 113, 5-(1,3-dichloropropan-2-ylidene)-2-(1′H,3H-spiro[2-benzofuran-1,4′-piperidin]-1′-yl)-1,3-thiazol-4(5H)-one]
8.4	O=C1N=C(N2CCC3(CC2)OCc2ccccc23)SC1=C(c1ccccc1)c1ccccc1 [Example 82, 5-(diphenylmethylidene)-2-(1′H,3H-spiro[2-benzofuran-1,4′-piperidin]-1′-yl)-1,3-thiazol-4(5H)-one]
8.2	O=C1N=C(N2CCC3(CC2)OCc2ncccc23)S/C1=C1/COCc2ccccc21 [Example 168, (5E/Z)-5-(1H-isochromen-4(3H)-ylidene)-2-(1′H,7H-spiro[furo[3,4-b]pyridine-5,4′-piperidin]-1′-yl)-1,3-thiazol-4(5H)-one]
8.3	CC(C)CC(CC(C)C)=C1SC(N2CCC3(CC2)OCc2ccccc23)=NC1=O [Example 116, 5-(2,6-dimethylheptan-4-ylidene)-2-(1′H,3H-spiro[2-benzofuran-1,4′-piperidin]-1′-yl)-1,3-thiazol-4(5H)-one]
8.1	Cc1cc(/C=C2\SC(N3CCC4(CC3)OCc3ccccc34)=NC2=O)no1 [Example 93, 5-[(5-methyl-1,2-oxazol-3-yl)methylidene]-2-(1′H,3H-spiro[2-benzofuran-1,4′-piperidin]-1′-yl)-1,3-thiazol-4(5H)-one]
9.3	O=C1N=C(N2CCC3(CC2)OCc2ccccc23)S/C1=C(/CO)c1ccccc1 [Example 124, (5E)-5-(2-hydroxy-1-phenylethylidene)-2-(1′H,3H-spiro[2-benzofuran-1,4′-piperidin]-1′-yl)-1,3-thiazol-4(5H)-one]
7.0	C/C(=C1/SC(N2CCC3(CC2)OCc2ccccc23)=NC1=O)c1cc2ncccc2o1 [Example 108, (5E/Z)-5-[1-(furo[3,2-b]pyridin-2-yl)ethylidene]-2-(1′H,3H-spiro[2-benzofuran-1,4′-piperidin]-1′-yl)-1,3-thiazol-4(5H)-one]
8.8	O=C1N=C(N2CCC3(CC2)OC(=O)c2ccccc23)S/C1=C(/CO)c1ccccc1 [Example 143, 1′-[(5E)-5-(2-hydroxy-1-phenylethylidene)-4-oxo-4,5-dihydro-1,3-thiazol-2-yl]-3H-spiro[2-benzofuran-1,4′-piperidin]-3-one]
7.3	O=C1N=C(N2CCC3(CC2)OCc2ccccc23)S/C1=C\c1ccccn1 [Example 90, (5Z)-5-(pyridin-2-ylmethylidene)-2-(1′H,3H-spiro[2-benzofuran-1,4′-piperidin]-1′-yl)-1,3-thiazol-4(5H)-one]
8.8	COC1CCCC/C1=C1/SC(N2CCC3(CC2)OCc2ccccc23)=NC1=O (centres unmarked) [Example 73, (5E/Z)-5-(2-methoxycyclohexylidene)-2-(1′H,3H-spiro[2-benzofuran-1,4′-piperidin]-1′-yl)-1,3-thiazol-4(5H)-one]
9.3	C/C(=C1/SC(N2CCC3(CC2)OC(=O)c2ccccc23)=NC1=O)c1ccccc1 [Example 156, 1′-[(5Z)-4-oxo-5-(1-phenylethylidene)-4,5-dihydro-1,3-thiazol-2-yl]-3H-spiro[2-benzofuran-1,4′-piperidin]-3-one]
7.9	C/C(=C1/SC(N2CCC3(CC2)OC(=O)c2ccccc23)=NC1=O)c1ccc(C)nc1 [Example 135, 1′-{(5Z)-5-[1-(6-methylpyridin-3-yl)ethylidene]-4-oxo-4,5-dihydro-1,3-thiazol-2-yl}-3H-spiro[2-benzofuran-1,4′-piperidin]-3-one]
7.5	Cc1cc(/C=C2\SC(N3CCC4(CC3)OCc3ccccc34)=NC2=O)no1 [Example 91, 5-[(5-methyl-1,2-oxazol-3-yl)methylidene]-2-(1′H,3H-spiro[2-benzofuran-1,4′-piperidin]-1′-yl)-1,3-thiazol-4(5H)-one]
8.3	CC(=O)OCC(COC(C)=O)=C1SC(N2CCC3(CC2)OCc2ccccc23)=NC1=O [Example 72, 2-[4-oxo-2-(1′H,3H-spiro[2-benzofuran-1,4′-piperidin]-1′-yl)-1,3-thiazol-5(4H)-ylidene]propane-1,3-diyl diacetate]
8.4	C/C(=C1/SC(N2CCC3(CC2)OCc2ccccc23)=NC1=O)c1cc(C)on1 [Example 79]
9.2	C/C(=C1/SC(N2CCC3(CC2)OCc2ccccc23)=NC1=O)c1ccccc1 [Example 151, (5Z)-5-(1-phenylethylidene)-2-(1′H,3H-spiro[2-benzofuran-1,4′-piperidin]-1′-yl)-1,3-thiazol-4(5H)-one]
